The nature of the series: plasma concentrations of COL-3 in humans. The class given is in vivo. Particulars: dose of about 10 to about 20 mg/day.

Consider `NC(=O)C1=C(O)C[C@@H]2C[C@@H]3Cc4cccc(O)c4C(=O)C3=C(O)[C@]2(O)C1=O` [COL-3, 6-demethyl-6-deoxy-4-de(dimethylamino)tetracycline], for which the plasma concentrations result was “about 1.0 μg/ml”.

The record behind these values is patent publication US20070010498A1, “Method for reducing blood loss associated with cardio-pulmonary bypass surgery” (priority 2005, published 2007).
